This is an account of results in US12673074B2, “Mycobacterium for use in cancer therapy” (TONRON INTERNATIONAL LIMITED, priority 2020, dated 2026).

In assay [1] the test system is advanced pancreatic cancer. The experiment in a line: Randomised, open-label, phase II study of gemcitabine with and without IMM-101 (IMAGE 1). Format: in vivo, human. From the text: This study is described in U.S. Pat. No. 8,617,520 assigned to the applicant, and the results were published by Dalgeish et al, in the paper entitled “Randomised, open-label, phase II study of gemcitabine with and without IMM-101 for advanced pancreatic cancer”. [Br. J. Cancer. 2016 Sep. 27; 115(7): 789-796] and also as “Long term survival in IMAGE 1 (Immune Modulation And Gemcitabine Evaluation 1), a randomized, open-label phase II trial comparing gemcitabine with and without IMM-101 in advanced pancreatic cancer”; Angus George Dalgleish and The IMAGE 1 Trial Investigators; Journal of Clinical Oncology 2015 33:15_suppl, 3051-3051.
In summary, this study compared, in patients with advanced pancreatic cancer, the effects of gemcitabine (GEM) in combination with IMM-101 (a suspension of heat-killed whole cell M. obuense in borate-buffered saline) to gemcitabine alone on: Safety and tolerability, including QoL; clinical signs and symptoms of disease; Overall survival (OS), progression-free survival (PFS), and overall response rate (ORR; Selected markers of tumour burden and immunological status
Disease outcome—patients, who provided informed consent, participated in a screening period of up to 28 days to establish eligibility. […]

The subject of assay [2] is advanced pancreatic cancer. Particulars: phase II trial, metastatic pancreatic cancer patients; gemcitabine therapy with or without addition of IMM-101 (background); cited from earlier work.

For `Nc1ccn([C@@H]2O[C@H](CO)[C@@H](O)C2(F)F)c(=O)n1` [GEM, gemcitabine], the “patients with BOR of PD” value in assay [1] (PS2 patients) was 2 patients. Also, the OS in assay [1] (pre-defined metastatic subgroup (84%)) came to 4.4 months. In assay [2], the overall survival is given as 4.4 months.
